Results taken from US8173689B2 (Novartis AG, priority 2006, dated 2012).
Like-named read-outs stand apart in the source and are kept apart here.

Experiments:
kinase domain of PDGFRβ = target: T1, kinase domain of PDGFRβ (Homo sapiens, UniProt P09619); assay: Inhibition of PDGFRb kinase signaling in an in vitro biochemical assay (alphascreen); conditions: tested at about 1 μM, read-out: PDGFRβ percent inhibition
T1 construct: The kinase domain of PDGFRβ was assayed in 50 mM Hepes; purchased Invitrogen P3082
T1 sequence (P09619 600-962 limits assumed): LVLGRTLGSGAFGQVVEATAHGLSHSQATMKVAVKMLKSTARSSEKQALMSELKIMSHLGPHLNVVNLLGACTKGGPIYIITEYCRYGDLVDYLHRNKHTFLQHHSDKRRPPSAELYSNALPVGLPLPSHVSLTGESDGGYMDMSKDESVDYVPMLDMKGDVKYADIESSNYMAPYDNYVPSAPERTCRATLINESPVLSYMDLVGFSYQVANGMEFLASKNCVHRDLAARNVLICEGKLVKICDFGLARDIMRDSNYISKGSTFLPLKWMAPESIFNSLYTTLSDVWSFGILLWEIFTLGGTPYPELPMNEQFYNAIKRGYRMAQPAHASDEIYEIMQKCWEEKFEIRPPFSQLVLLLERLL

kinase domain of cKIT = target: T2, kinase domain of cKIT (Homo sapiens, UniProt P10721); assay: Inhibition of cKIT kinase signaling in an in vitro biochemical assay (alphascreen); conditions: tested at about 1 μM, read-out: cKit percent inhibition
T2 construct: The kinase domain of cKIT was assayed in 50 mM Hepes; purchased Upstate 14-559
T2 sequence (P10721 589-937 limits assumed): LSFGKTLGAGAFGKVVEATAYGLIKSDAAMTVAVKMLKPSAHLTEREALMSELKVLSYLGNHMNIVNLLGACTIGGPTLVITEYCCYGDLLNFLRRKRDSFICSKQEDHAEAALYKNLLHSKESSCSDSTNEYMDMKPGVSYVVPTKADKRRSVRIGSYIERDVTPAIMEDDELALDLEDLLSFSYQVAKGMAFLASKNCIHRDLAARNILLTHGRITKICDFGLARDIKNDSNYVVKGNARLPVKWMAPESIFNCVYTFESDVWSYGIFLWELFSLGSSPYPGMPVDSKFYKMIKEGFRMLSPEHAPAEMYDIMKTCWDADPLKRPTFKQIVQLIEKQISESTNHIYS

[1] = target: T3, cytoplasmic domain of the human CSF-1R (Homo sapiens, UniProt P07333); assay: In vitro kinase assay for colony stimulating factor-1 receptor (AlphaScreen); assay type: biochemical; conditions: tested at about 1 μM, read-out: CSF-1R percent inhibition
T3 construct: Recombinant protein corresponding to the cytoplasmic domain of the human CSF-1R; purchased Invitrogen Corporation, Carlsbad, Calif; PV3249
T3 sequence (P07333 539-972 limits assumed): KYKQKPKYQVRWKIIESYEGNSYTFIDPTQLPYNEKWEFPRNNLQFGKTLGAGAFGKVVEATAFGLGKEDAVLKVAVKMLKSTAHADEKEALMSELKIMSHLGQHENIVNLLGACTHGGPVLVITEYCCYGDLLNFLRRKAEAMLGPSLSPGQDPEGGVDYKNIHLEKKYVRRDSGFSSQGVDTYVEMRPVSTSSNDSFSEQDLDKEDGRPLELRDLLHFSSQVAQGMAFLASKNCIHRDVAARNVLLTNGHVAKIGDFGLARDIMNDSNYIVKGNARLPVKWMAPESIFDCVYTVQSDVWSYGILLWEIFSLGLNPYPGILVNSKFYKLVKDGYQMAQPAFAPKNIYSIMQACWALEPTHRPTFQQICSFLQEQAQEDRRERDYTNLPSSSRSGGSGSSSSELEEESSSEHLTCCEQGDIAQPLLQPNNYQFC
Procedure, shortened: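 At a low ATP level of 1 μM, phosphate transfer by the cytoplasmic-domain kinase (4 nM) was quantified with an AlphaScreen anti-phosphotyrosine bead pair.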

[2] = system: MNFS60 (murine AML cells); assay: Cell viability assay in MCSF dependent MNFS60 cells (Cell Titer Glo); assay type: cell-based; conditions: Mus musculus, tested at about 1 μM, read-out: M-NFS-60 CP percent inhibition
Experimental: Cell viability was assessed by Cell Titer Glo, Promega. […] Test compounds were serially diluted (3 fold) in DMSO to 500× the final concentration. […] Final concentration of MCSF is 10 ng/ml. Cells were incubated for 72 hrs at 37° C., 5% CO2. After the incubation 100 μl Cell Titer Glo is added to each well to determine viable cells. The assay was performed according to the manufacturer's instruction (Promega Corporation, Madison, Wis. USA). Each experimental condition was performed in triplicate. Raw data was imported in Abase and EC50s calculated with XL-fit data analysis software.

| Structure (SMILES) | inhibition at 1 µM (kinase domain of PDGFRβ) [%] | inhibition at 1 µM (kinase domain of cKIT) [%] | inhibition at 1 µM [1] [%] | inhibition at 1 µM ([2]; MNFS60 cells) [%] | inhibition at 1 µM (kinase domain of PDGFRβ; compounds of Table 3) [%] | inhibition at 1 µM (kinase domain of cKIT; compounds of Table 3) [%] | inhibition at 1 µM ([1]; compounds of Table 3) [%] | inhibition at 1 µM ([2]; compounds of Table 3) [%] | inhibition at 1 µM ([2]; MCSF dependent MNFS60 cells) [%] |
| --- | --- | --- | --- | --- | --- | --- | --- | --- | --- |
| CNC(=O)c1cc(Oc2ccc3nc(NCc4ccc(S(N)(=O)=O)cc4)sc3c2)ccn1 [Compound 161, 4-[2-(4-Sulfonamido-benzyl-amino)-benzothiazol-6-yloxy]-pyridine-2-carboxylic acid methylamide] | 94 | 0 | 100 | 38 | – | – | – | – | – |
| CNC(=O)c1cc(Oc2ccc3nc(NCc4c(Cl)cccc4OC)oc3c2)ccn1 [Compound 121, 4-[2-(2-Chloro-6-methoxy-benzylamino)-benzooxazol-6-yloxy]-pyridine-2-carboxylic acid methylamide] | 30 | 9 | 100 | 17 | – | – | – | – | – |
| CNC(=O)c1cc(Oc2ccc3nc(N[C@H](CO)Cc4ccccc4)oc3c2)ccn1 [Compound 8] | – | – | – | – | 31 | 99 | 95 | 0 | – |
| Fc1ccc2c(Oc3ccc4nc(NCC5CCCCC5)sc4c3)ccnc2c1 [Example 227, N-(cyclohexylmethyl)-6-(7-fluoroquinolin-4-yloxy)benzo[d]thiazol-2-amine] | – | – | – | – | 47 | 100 | 100 | 65 | – |
| CNC(=O)c1cc(Oc2ccc3nc(NCC4COc5ccccc5O4)oc3c2)ccn1 (centres unmarked) [Compound 119, 4-{2-[(2,3-Dihydro-benzo-[1,4]dioxin-2-ylmethyl)-amino]-benzooxazol-6-yloxy}-pyridine-2-carboxylic acid methylamide] | 32 | 18 | 99 | 13 | – | – | – | – | – |
| Cn1cc(-c2cc(Oc3ccc4nc(NC[C@@H](O)c5ccccc5)sc4c3)ccn2)cn1 [Example 357, (S)-2-(6-(2-(1-methyl-1H-pyrazol-4-yl)pyridin-4-yloxy)benzo[d]thiazol-2-ylamino)-1-phenylethanol] | 44 | 91 | 100 | – | – | – | – | – | 100 |
| CNC(=O)c1cc(Oc2ccc3nc(N[C@H]4CCCC[C@H]4NS(C)(=O)=O)sc3c2)ccn1 [Example 300, N-methyl-4-(2-((1S,2R)-2-(methylsulfonylamido)cyclo-hexylamino)benzo[d]thiazol-6-yloxy)picolinamide] | 0 | 2 | 99 | – | – | – | – | – | 14 |
| N#Cc1ccc2c(Oc3ccc4nc(NCC5CCCCC5)sc4c3)ccnc2c1 [Example 221, 4-(2-(cyclohexylmethylamino)benzo[d]thiazol-6-yloxy)quinoline-7-carbonitrile] | – | – | – | – | 88 | 97 | 100 | 52 | – |
| CCc1nc(-c2cc(Oc3ccc4nc(N[C@@H](C)C5CCCCC5)sc4c3)ccn2)[nH]c1CC [Example 272, (S)-N-(1-cyclohexylethyl)-6-(2-(4,5-diethyl-1H-imidazol-2-yl)pyridin-4-yloxy)benzo[d]thiazol-2-amine] | – | – | – | – | 7 | 24 | 98 | 38 | – |
| N#Cc1ccc(-c2cc(Oc3ccc4nc(N[C@@H]5CCCC[C@H]5O)sc4c3)ccn2)cn1 [Example 287, 4-(2-((1R,2R)-2-hydroxycyclohexylamino)benzo[d]thiazol-6-yloxy)-2,3'-bipyridine-6'-carbonitrile] | – | – | – | – | 20 | 57 | 100 | 35 | – |
| CNc1cc(Oc2ccc3nc(N[C@@H]4CCCC[C@H]4O)sc3c2)ccn1 [Example 368, (1R,2R)-2-(6-(2-(methylamino)pyridin-4-yloxy)benzo[d]thiazol-2-ylamino)cyclohexanol] | 8 | 24 | 100 | – | – | – | – | – | 12 |
| CNC(=O)c1cc(Oc2ccc3nc(NCCc4cnccn4)sc3c2)ccn1 [Compound 148] | – | – | – | – | 2 | 23 | 96 | 1 | – |
| CNC(=O)c1cc(Oc2ccc3nc(NCCc4ccccc4)oc3c2)ccn1 [Compound 61, 4-(2-Phenylethylamino-benzo-oxazol-6-yloxy)-pyridine-2-carboxylic acid methylamide] | 0 | 74 | 94 | 35 | – | – | – | – | – |
| Cc1nn(C)c(C)c1-c1cc(Oc2ccc3nc(N[C@@H]4CCCC[C@H]4O)sc3c2)ccn1 [Example 283, (1R,2R)-2-(6-(2-(1,3,5-trimethyl-1H-pyrazol-4-yl)pyridin-4-yloxy)benzo[d]thiazol-2-ylamino)cyclohexanol] | – | – | – | – | 20 | 38 | 99 | 0 | – |
| CNC(=O)c1cc(Oc2ccc3nc(N[C@@H]4CCCC[C@H]4O)sc3c2C)ccn1 [Example 377, 4-(2-((1R,2R)-2-hydroxycyclohexylamino)-7-methylbenzo[d]thiazol-6-yloxy)-N-methylpicolinamide] | 49 | 75 | 100 | – | – | – | – | – | 93 |
| FC(F)Oc1ccccc1CNc1nc2ccc(Oc3ccnc4ccccc34)cc2s1 [Example 246, N-(2-(difluoromethoxy)benzyl)-6-(quinolin-4-yloxy)benzo[d]thiazol-2-amine] | – | – | – | – | 82 | 100 | 100 | 100 | – |
| CNC(=O)c1cc(Oc2ccc3nc(NCc4cc(F)ccc4OC)oc3c2)ccn1 [Compound 115, 4-[2-(5-Fluoro-2-methoxy-benzylamino)-benzooxazol-6-yloxy]-pyridine-2-carboxylic acid methylamide] | 18 | 88 | 99 | 21 | – | – | – | – | – |
| CNC(=O)c1cc(Oc2ccc3nc(Nc4cccc(CCN5CCOCC5)c4)oc3c2)ccn1 [Compound 74, 4-{2-[3-(2-Morpholin-4-yl-ethyl)-phenylamino]-benzo-oxazol-6-yloxy}-pyridine-2-carboxylic acid methylamide] | 31 | 34 | 100 | 14 | – | – | – | – | – |
| CNC(=O)c1cc(Oc2ccc3nc(NCc4ccccc4)sc3c2)ccn1 [Compound 138] | – | – | – | – | 37 | 100 | 100 | 105 | – |
| CNC(=O)c1cc(Oc2cc(C)c3nc(NCC4CCCCC4)sc3c2)ccn1 [Example 374, 4-(2-(cyclohexylmethylamino)-4-methylbenzo[d]thiazol-6-yloxy)-N-methylpicolinamide] | 41 | 98 | 99 | – | – | – | – | – | 3 |
| Cn1cc(-c2cc(Oc3ccc4nc(NCc5ccccc5OC(F)F)sc4c3)ccn2)cn1 [Example 356, N-(2-(difluoromethoxy)benzyl)-6-(2-(1-methyl-1H-pyrazol-4-yl)pyridin-4-yloxy)benzo[d]thiazol-2-amine] | 99 | 100 | 100 | – | – | – | – | – | 100 |
| CNC(=O)c1cc(Oc2ccc3nc(NCc4ccccc4N4CCCCC4)sc3c2)ccn1 [Compound 153, 4-[2-(2-Piperidin-1-yl-benzylamino)-benzothiazol-6-yloxy]-pyridine-2-carboxylic acid methylamide] | 91 | 0 | 97 | 63 | – | – | – | – | – |
| CNC(=O)c1cc(Oc2ccc3nc(N[C@H]4[C@H]5CC[C@H](C5)[C@H]4CO)sc3c2)ccn1 [Example 325, 4-(2-((1S,3R,4R)-3-(hydroxymethyl)bicyclo[2.2.1]heptan-2-ylamino)benzo[d]thiazol-6-yloxy)-N-methylpicolinamide] | 43 | 27 | 100 | – | – | – | – | – | 66 |
